# Test results from PubChem BioAssay AID256 (DTP/NCI, 2004).
# Where “and” joins values, the source holds several entries; their conditions need not be identical. Equal entries are not always repeated. Toxic doses and inconclusive results are not listed.
# System: CD2F1 mice, L1210 leukemia ip, survival T/C
# Test: NCI In Vivo Anticancer Drug Screen. Data for tumor model L1210 Leukemia (intraperitoneal) in CD2F1 (CDF1) mice
# Settings: higher = longer survival
# How it was run: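 Each value reflects a quotient of treated over vehicle control outcomes in mice with a transplanted tumor.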
# [1] = endpoint: mean survival time, dose: 100.0 mg/kg/injection, schedule: Q01DX009 (ip), vehicle: other
# [2] = endpoint: mean survival time, dose: 200.0 mg/kg/injection, schedule: Q01DX009 (ip), vehicle: other
# [3] = endpoint: mean survival time, dose: 100.0 mg/kg/injection, schedule: Q01DX009 (ip), vehicle: saline with Tween-80
# [4] = endpoint: mean survival time, dose: 200.0 mg/kg/injection, schedule: Q01DX009 (ip), vehicle: saline with Tween-80
# [5] = endpoint: mean survival time, dose: 100.0 mg/kg/injection, schedule: Q04DX003 (ip), vehicle: saline
# [6] = endpoint: mean survival time, dose: 200.0 mg/kg/injection, schedule: Q04DX003 (ip), vehicle: saline
# [7] = endpoint: mean survival time, dose: 400.0 mg/kg/injection, schedule: Q04DX003 (ip), vehicle: saline
smiles,measurement,setting,value
O=S(=O)(SC(S(=O)(=O)c1ccccc1)S(=O)(=O)c1ccccc1)c1ccccc1,T/C,"endpoint: mean survival time, dose: 12.5 mg/kg/injection, schedule: Q01DX009 (ip), vehicle: Klucel (hydroxypropylcellulose) (HPC)",94 % of control and 105 % of control
same,T/C,"endpoint: mean survival time, dose: 25.0 mg/kg/injection, schedule: Q01DX009 (ip), vehicle: Klucel (hydroxypropylcellulose) (HPC)",97 % of control and 110 % of control
same,T/C,"endpoint: mean survival time, dose: 50.0 mg/kg/injection, schedule: Q01DX009 (ip), vehicle: Klucel (hydroxypropylcellulose) (HPC)",98 % of control and 102 % of control
same,T/C,"endpoint: mean survival time, dose: 100.0 mg/kg/injection, schedule: Q01DX009 (ip), vehicle: Klucel (hydroxypropylcellulose) (HPC)",96 % of control
same,T/C,"endpoint: mean survival time, dose: 200.0 mg/kg/injection, schedule: Q01DX009 (ip), vehicle: Klucel (hydroxypropylcellulose) (HPC)",92 % of control and 104 % of control
same,T/C,"endpoint: mean survival time, dose: 400.0 mg/kg/injection, schedule: Q01DX009 (ip), vehicle: Klucel (hydroxypropylcellulose) (HPC)",113 % of control and 94 % of control
same,T/C,"endpoint: median survival time, dose: 100.0 mg/kg/injection, schedule: Q01DX009 (ip), vehicle: Klucel (hydroxypropylcellulose) (HPC)",103 % of control
same,T/C,"endpoint: median survival time, dose: 200.0 mg/kg/injection, schedule: Q01DX009 (ip), vehicle: Klucel (hydroxypropylcellulose) (HPC)",102 % of control
same,T/C,"endpoint: median survival time, dose: 400.0 mg/kg/injection, schedule: Q01DX009 (ip), vehicle: Klucel (hydroxypropylcellulose) (HPC)",102 % of control
same,T/C,"endpoint: median survival time, dose: 800.0 mg/kg/injection, schedule: Q01DX009 (ip), vehicle: Klucel (hydroxypropylcellulose) (HPC)",92 % of control
CCCCCCCCCCCC(=O)CCCC,T/C,[1],98 % of control
same,T/C,"endpoint: mean survival time, dose: 100.0 mg/kg/injection, schedule: Q04DX003 (ip), vehicle: other",102 % of control
same,T/C,[2],104 % of control
same,T/C,"endpoint: mean survival time, dose: 200.0 mg/kg/injection, schedule: Q04DX003 (ip), vehicle: other",91 % of control
same,T/C,"endpoint: mean survival time, dose: 400.0 mg/kg/injection, schedule: Q01DX009 (ip), vehicle: other",106 % of control
same,T/C,"endpoint: mean survival time, dose: 400.0 mg/kg/injection, schedule: Q04DX003 (ip), vehicle: other",97 % of control
O=C(NCCCCC(NC(=O)OCc1ccccc1)C(=O)ON1C(=O)CCC1=O)OCc1ccccc1 (stereo unspecified),T/C,"endpoint: mean survival time, dose: 12.5 mg/kg/injection, schedule: Q01DX009 (ip), vehicle: other",96 % of control
same,T/C,"endpoint: mean survival time, dose: 25.0 mg/kg/injection, schedule: Q01DX009 (ip), vehicle: other",86 % of control
same,T/C,"endpoint: mean survival time, dose: 50.0 mg/kg/injection, schedule: Q01DX009 (ip), vehicle: other",90 % of control
same,T/C,[1],94 % of control
same,T/C,[2],97 % of control
Cc1cc(C)c(CC(C)C)c(C)c1,T/C,"endpoint: mean survival time, dose: 100.0 mg/kg/injection, schedule: Q01DX001 (ip), vehicle: saline",98 % of control
same,T/C,"endpoint: mean survival time, dose: 200.0 mg/kg/injection, schedule: Q01DX001 (ip), vehicle: saline",98 % of control
same,T/C,"endpoint: mean survival time, dose: 400.0 mg/kg/injection, schedule: Q01DX001 (ip), vehicle: saline",98 % of control
Cc1ccn(C)c(=O)c1,T/C,"endpoint: mean survival time, dose: 100.0 mg/kg/injection, schedule: Q01DX009 (ip), vehicle: saline",103 % of control
same,T/C,"endpoint: mean survival time, dose: 200.0 mg/kg/injection, schedule: Q01DX009 (ip), vehicle: saline",104 % of control
same,T/C,"endpoint: mean survival time, dose: 400.0 mg/kg/injection, schedule: Q01DX009 (ip), vehicle: saline",101 % of control
COc1ccc(OC)c(Cc2cnc3nc(N)nc(N)c3c2C)c1,T/C,"endpoint: median survival time, dose: 2.5 mg/kg/injection, schedule: Q01DX009 (ip), vehicle: dextrose",103 % of control
same,T/C,"endpoint: median survival time, dose: 5.0 mg/kg/injection, schedule: Q01DX009 (ip), vehicle: dextrose",101 % of control and 102 % of control
same,T/C,"endpoint: median survival time, dose: 6.25 mg/kg/injection, schedule: Q01DX009 (ip), vehicle: water",95 % of control
same,T/C,"endpoint: median survival time, dose: 10.0 mg/kg/injection, schedule: Q01DX009 (ip), vehicle: dextrose",101 % of control and 102 % of control
same,T/C,"endpoint: median survival time, dose: 12.5 mg/kg/injection, schedule: Q01DX009 (ip), vehicle: water",98 % of control
same,T/C,"endpoint: median survival time, dose: 20.0 mg/kg/injection, schedule: Q01DX009 (ip), vehicle: dextrose",106 % of control and 112 % of control
same,T/C,"endpoint: median survival time, dose: 25.0 mg/kg/injection, schedule: Q01DX009 (ip), vehicle: water",111 % of control
same,T/C,"endpoint: median survival time, dose: 50.0 mg/kg/injection, schedule: Q01DX009 (ip), vehicle: water",151 % of control
same,T/C,"endpoint: median survival time, dose: 80.0 mg/kg/injection, schedule: Q01DX009 (ip), vehicle: dextrose",103 % of control
same,T/C,"endpoint: median survival time, dose: 100.0 mg/kg/injection, schedule: Q01DX009 (ip), vehicle: water",88 % of control
O=[N+]([O-])c1ccc(Cl)c(CNc2ncnc3c2ncn3C2CCCCO2)c1 (stereo unspecified),T/C,"endpoint: mean survival time, dose: 100.0 mg/kg/injection, schedule: Q01DX009 (ip), vehicle: acetone",95 % of control
same,T/C,"endpoint: mean survival time, dose: 200.0 mg/kg/injection, schedule: Q01DX009 (ip), vehicle: acetone",97 % of control
same,T/C,"endpoint: mean survival time, dose: 400.0 mg/kg/injection, schedule: Q01DX009 (ip), vehicle: acetone",93 % of control
CC([NH-])C([NH-])O.[I][Pt+2][I] (stereo unspecified),T/C,"endpoint: mean survival time, dose: 6.25 mg/kg/injection, schedule: Q04DX003 (ip), vehicle: saline with Tween-80",97 % of control
same,T/C,"endpoint: mean survival time, dose: 12.5 mg/kg/injection, schedule: Q04DX003 (ip), vehicle: saline with Tween-80",115 % of control
same,T/C,"endpoint: mean survival time, dose: 25.0 mg/kg/injection, schedule: Q04DX003 (ip), vehicle: saline with Tween-80",121 % of control
Nc1ccccc1-c1n[nH]c2ccccc12,T/C,"endpoint: mean survival time, dose: 25.0 mg/kg/injection, schedule: Q04DX002 (ip), vehicle: saline with Tween-80",110 % of control
same,T/C,"endpoint: mean survival time, dose: 50.0 mg/kg/injection, schedule: Q04DX002 (ip), vehicle: saline with Tween-80",103 % of control
same,T/C,"endpoint: mean survival time, dose: 100.0 mg/kg/injection, schedule: Q04DX002 (ip), vehicle: saline with Tween-80",103 % of control
same,T/C,"endpoint: mean survival time, dose: 200.0 mg/kg/injection, schedule: Q04DX002 (ip), vehicle: saline with Tween-80",100 % of control
O=[N+]([O-])c1ccc(Sc2ccc([N+](=O)[O-])cc2)cc1,T/C,"endpoint: mean survival time, dose: 100.0 mg/kg/injection, schedule: Q04DX003 (ip), vehicle: saline with Tween-80",88 % of control
same,T/C,"endpoint: mean survival time, dose: 200.0 mg/kg/injection, schedule: Q04DX003 (ip), vehicle: saline with Tween-80",92 % of control
O=[N+]([O-])c1ccccc1NC(Nc1ccccc1[N+](=O)[O-])C(Cl)(Cl)Cl,T/C,[3],98 % of control
same,T/C,[4],101 % of control
same,T/C,"endpoint: mean survival time, dose: 400.0 mg/kg/injection, schedule: Q01DX009 (ip), vehicle: saline with Tween-80",101 % of control
Cc1cc(C)c(CC=O)c(C)c1,T/C,"endpoint: median survival time, dose: 25.0 mg/kg/injection, schedule: Q04DX002 (ip), vehicle: saline with Tween-80",100 % of control
same,T/C,"endpoint: median survival time, dose: 50.0 mg/kg/injection, schedule: Q04DX002 (ip), vehicle: saline with Tween-80",100 % of control
same,T/C,"endpoint: median survival time, dose: 100.0 mg/kg/injection, schedule: Q04DX002 (ip), vehicle: saline with Tween-80",100 % of control
same,T/C,"endpoint: median survival time, dose: 200.0 mg/kg/injection, schedule: Q04DX002 (ip), vehicle: saline with Tween-80",100 % of control
Nc1cc(Sc2ccc(Cl)cc2)nc(N)n1,T/C,"endpoint: mean survival time, dose: 25.0 mg/kg/injection, schedule: Q01DX001 (ip), vehicle: saline with Tween-80",102 % of control
same,T/C,"endpoint: mean survival time, dose: 50.0 mg/kg/injection, schedule: Q01DX001 (ip), vehicle: saline with Tween-80",102 % of control
same,T/C,"endpoint: mean survival time, dose: 100.0 mg/kg/injection, schedule: Q01DX001 (ip), vehicle: saline with Tween-80",98 % of control
CC1(C)OC1C(=O)O (stereo unspecified),T/C,[5],106 % of control
same,T/C,[6],96 % of control
same,T/C,[7],98 % of control
O=CC1C(=O)Nc2ccccc21 (stereo unspecified),T/C,"endpoint: mean survival time, dose: 50.0 mg/kg/injection, schedule: Q01DX009 (ip), vehicle: saline with Tween-80",96 % of control
same,T/C,[3],96 % of control
same,T/C,[4],104 % of control
CCC(C)(C)OC(=O)Nc1ccc(C)c(NC(=O)OC(C)(C)CC)c1,T/C,"endpoint: mean survival time, dose: 75.0 mg/kg/injection, schedule: Q01DX001 (ip), vehicle: other",86 % of control
same,T/C,"endpoint: mean survival time, dose: 150.0 mg/kg/injection, schedule: Q01DX001 (ip), vehicle: other",86 % of control
same,T/C,"endpoint: mean survival time, dose: 300.0 mg/kg/injection, schedule: Q01DX001 (ip), vehicle: other",90 % of control
O.O.O.O.[Fe].[Fe].[Fe].[NH-]c1c(C(=O)O)ncn1C1[OH+]C(CO)C(O)C1O.[NH-]c1c(C(=O)O)ncn1C1[OH+]C(CO)C(O)C1O (stereo unspecified),T/C,"endpoint: mean survival time, dose: 12.5 mg/kg/injection, schedule: Q01DX005 (ip), vehicle: distilled water + Tween-80",94 % of control
same,T/C,"endpoint: mean survival time, dose: 25.0 mg/kg/injection, schedule: Q01DX005 (ip), vehicle: distilled water + Tween-80",97 % of control
same,T/C,"endpoint: mean survival time, dose: 50.0 mg/kg/injection, schedule: Q01DX005 (ip), vehicle: distilled water + Tween-80",103 % of control
same,T/C,"endpoint: mean survival time, dose: 200.0 mg/kg/injection, schedule: Q01DX005 (ip), vehicle: distilled water + Tween-80",88 % of control
CC(=O)C(Cl)C(C)=O.CC(=O)C(Cl)C(C)=O.CO.CO.[Ni],T/C,"endpoint: mean survival time, dose: 50.0 mg/kg/injection, schedule: Q04DX003 (ip), vehicle: saline",108 % of control
Cc1noc(/N=C/c2cccc(Cl)c2)c1C,T/C,[5],96 % of control
same,T/C,[6],101 % of control
same,T/C,[7],101 % of control
